Values joined by “and” are separate entries in the source; they are usually repeats but may differ in a detail not shown here. Identical values can stand only once.
How the values were obtained:
[1] = Weights and survival (Example 2, SCI-02); type: in vivo, Syrian Golden Hamsters
Procedure: All animals were weighed daily and their survival recorded, in order to assess possible differences in animal weight among treatment groups as an indication for mucositis severity and/or possible toxicity resulting from the treatments.
The mean daily percent weight change data was evaluated. The saline treated control hamsters gained an average of 44.1% of their starting weight during the study. Hamsters in the group receiving SCV-07 100 μg/kg once daily on days −1 to 20 gained an average of 49.9% of their starting weight during the study. Hamsters in the group receiving SCV-07 at 100 μg/kg twice daily on days −1 to 20 gained an average of 61.3% of their starting weight during the study. Hamsters in the group receiving SCV-07 at 1 mg/kg once daily on days −1 to 20 gained an average of 63.4% of their starting weight during the study. Hamsters in the group receiving SCV-07 at 1 mg/kg twice daily on days −1 to 20 gained an average of 69.1% of their starting weight during the study. The significance of these differences was evaluated by calculating the area-under-the-curve (AUC) for the weight gain of each animal, and then comparing the different treatment groups using a One-Way ANOVA test.

[2] = test system: oral mucositis induced by acute radiation (40 Gy, left buccal cheek pouch); assay: Oral mucositis induced by acute radiation in hamsters, mucositis scoring (Example 2, SCI-02); type: in vivo, Syrian Golden Hamsters; parameters: key to peak mean mucositis score: 0 = normal to 5 = severe ulceration (visual scale); key to Mucositis score: 0: Pouch completely healthy. No erythema or vasodilation.; 1: Light to severe erythema and vasodilation. No erosion of mucosa.; 2: Severe erythema and vasodilation. Erosion of superficial aspects of mucosa leaving denuded areas. Decreased stippling of mucosa.; 3: Formation of off-white ulcers in one or more places. Ulcers may have a yellow/gray due to pseudomembrane. Cumulative size of ulcers should equal about ¼ of the pouch. Severe erythema and vasodilation.; 4: Cumulative seize of ulcers should equal about ½ of the pouch. Loss of pliability. Severe erythema and vasodilation.; 5: Virtually all of pouch is ulcerated. Loss of pliability (pouch can only partially be extracted from mouth); settings: for % Days >=3 / Days <3 / Days >=3 / Chi Sq v control: sc, days -1 to 20; for Mucositis score: Group 2 (SCV-07 100 μg/kg once daily, days -1 to 20), individual animals, two scores per animal; for Days >=3: animal days with mucositis score of three or more; for Chi Sq v control: days with score >=3
Source text: The acute radiation model in hamsters, developed by the Principle Investigator, has proven to be an accurate, efficient and cost-effective technique to provide a preliminary evaluation of anti-mucositis compounds. The course of mucositis in this model is well defined and results in peak scores approximately 14-16 Days following radiation. The acute model has little systemic toxicity, resulting in few hamster deaths, thus permitting the use of smaller groups (N=7-8) for initial efficacy studies. It has also been used to study specific mechanistic elements in the pathogenesis of mucositis. Molecules that show efficacy in the acute radiation model may be further evaluated in the more complex models of fractionated radiation, chemotherapy, or concomitant therapy.
In this study, an acute radiation dose of 40 Gy on day 0 was administered. Clinically significant mucositis was observed on days 12 through 28.
Forty (40) Syrian Golden Hamsters were given an acute radiation dose of 40 Gy directed to their left buccal cheek pouch on day 0. Test material SCV-07 was given by sub-cutaneous injection at 100 μg/kg or 1 mg/kg once or twice daily. Dosing began one day before radiation (day −1) and continued until day 20. Mucositis was evaluated clinically starting on day 6, and continuing on alternate days until day 28.
The grade of mucositis was scored, beginning day 6, and for every second day thereafter, through and including day 28. The effect on mucositis of each drug treatment compared to placebo was assessed according to the following parameters:
On each evaluation day, the number of animals with a blinded mucositis score of ≧3 in each drug treatment group was compared to the control group. Differences were compared on a cumulative basis and statistical significance was determined by chi-square analysis. Efficacy, in this analysis, is defined by a significant reduction in the number of days that a group of animals had ulcerations (scores ≧3) when compared to the control group. This same test was also used to evaluate differences between different drug treatment groups.
For each evaluation day the scores of the control group were compared to those of the treated groups using non-parametric rank sum analysis. Treatment success was considered as a statistically significant lowering of scores in the treated group on 2 or more days from day 6 to day 28.
Forty Syrian Golden Hamsters were divided into five (5) groups of eight (8) animals each. All animals received a single dose of acute radiation of 40 Gy directed to their left buccal cheek pouch on day 0. This was accomplished by anesthetizing the animals and everting the left buccal pouch, while protecting the rest of the animals with a lead shield. Test materials were given by sub-cutaneous injection once daily as detailed in Table 5. Mucositis was evaluated clinically starting on Day 6, and continuing on alternate days until day 28.
Mucositis was induced using a standardized acute radiation protocol. A single dose of radiation (40 Gy/dose) was administered to all animals on day 0. Radiation was generated with a 160 kilovolt potential (15-ma) source at a focal distance of 30 cm, hardened with a 0.35 mm Cu filtration system. Irradiation targeted the left buccal pouch mucosa at a rate of 3.2 Gy/minute. Prior to irradiation, animals were anesthetized with an intraperitoneal injection of Ketamine (160 mg/kg) and Xylazine (8 mg/kg). The left buccal pouch was everted, fixed and isolated using a lead shield to protect all other parts of the hamster's body.
The mucositis score, weight change and survival were measured throughout the study as described above. For the evaluation of mucositis, the animals were anesthetized with an inhalation anesthetic, and the left pouch everted. Mucositis was scored visually by comparison to a validated photographic scale, ranging from 0 for normal, to 5 for severe ulceration (clinical scoring). In descriptive terms, this scale is defined as follows: […]

[3] = 100 ug/kg once daily from day -1 to 20
[4] = 1 mg/kg once daily from day -1 to 20
[5] = 1 mg/kg twice daily from day -1 to 20

N[C@H](CCC(=O)N[C@@H](Cc1c[nH]c2ccccc12)C(=O)O)C(=O)O [SCV-07, γ-D-glutamyl-L-tryptophan]
average weight gain, % of starting weight during the study ([1]; 100 ug/kg once daily on days -1 to 20): 49.9%
P, weight gain greater than saline controls ([1]; 100 ug/kg twice daily): 0.014
average weight gain, % of starting weight during the study ([1]; 100 ug/kg twice daily on days -1 to 20): 61.3%
P, weight gain greater than saline controls ([1]; 1 mg/kg once daily): 0.009
average weight gain, % of starting weight during the study ([1]; 1 mg/kg once daily on days -1 to 20): 63.4%
P, weight gain greater than saline controls ([1]; 1 mg/kg twice daily): 0.004
average weight gain, % of starting weight during the study ([1]; 1 mg/kg twice daily on days -1 to 20): 69.1%
P, One-Way ANOVA of weight gain AUC, SCV-07 treated groups vs control group ([1]; all SCV-07 groups, significant differences): 0.012
day of peak mean mucositis score [2, 3]: 16
peak mean mucositis score [2, 3]: 2.2
peak mean mucositis score ([2]; 100 ug/kg twice daily from day -1 to 20): 2.5
% Days >=3 ([2]; 100 ug/kg, bid): 8.9%
Days <3 ([2]; 100 ug/kg, bid): 175
% Days >=3 ([2]; 100 ug/kg, qd): 6.3%
Days <3 ([2]; 100 ug/kg, qd): 180
day of peak mean mucositis score [2, 4]: 14
peak mean mucositis score [2, 4]: 2.9
improvement in daily mucositis scores relative to controls (Mann-Whitney rank sum) ([2]; 1 mg/kg once daily on days -1 to 20, any day of the study): no significant improvement in mucositis on any day
day of peak mean mucositis score [2, 5]: 14
peak mean mucositis score [2, 5]: 2.6
% Days >=3 ([2]; 1 mg/kg, bid): 12.5%
Days <3 ([2]; 1 mg/kg, bid): 168
% Days >=3 ([2]; 1 mg/kg, qd): 28.1%
Days <3 ([2]; 1 mg/kg, qd): 138
Mucositis score ([2]; day 6): 1 (6×) and 0 (2×)
Mucositis score ([2]; day 8): 1
Mucositis score ([2]; day 10): 2 (4×) and 1 (4×)
Mucositis score ([2]; day 12): 2 (7×) and 3
Mucositis score ([2]; day 14): 2
Mucositis score ([2]; day 16): 2
Mucositis score ([2]; day 18): 2 (5×) and 3 (2×) and 1
Mucositis score ([2]; day 20): 2 (6×) and 3 (2×)
Mucositis score ([2]; day 22): 1 (2×) and 2 (7×)
Mucositis score ([2]; day 24): 1 (3×) and 2 (6×)
Mucositis score ([2]; day 26): 1 (2×) and 2 (7×)
Mucositis score ([2]; day 28): 1 (7×) and 2 (2×)
Days >=3 ([2]; 100 ug/kg, bid): 17
Days >=3 ([2]; 100 ug/kg, qd): 12
Days >=3 ([2]; 1 mg/kg, bid): 24
Days >=3 ([2]; 1 mg/kg, qd): 54
P, number of animal days with a score of 3 or higher, 100 ug/kg once daily vs 1 mg/kg twice daily ([2]; chi-squared test, no statistically significant difference): 0.054
Chi Sq v control ([2]; 100 ug/kg, bid): 21.4010
Chi Sq v control ([2]; 100 ug/kg, qd): 27.828
Chi Sq v control ([2]; 1 mg/kg, bid): 12.7360
Chi Sq v control ([2]; 1 mg/kg, qd): 0.0000

Source: patent US7906486B2, “Method of treating or preventing tissue deterioration, injury or damage due to disease of mucosa” (SciClone Pharmaceuticals, Inc., priority 2007, dated 2011)
